Literature values as cited in patent US20220119489A1, “COMPOSITIONS AND METHODS FOR TREATING MUSCULAR DYSTROPHY AND RELATED DISORDERS” (CHILDREN'S MEDICAL CENTER CORPORATION, priority 2019, published 2022).

Tests used:
CD82 [1] = conditions: stated as previously shown, no test described
CD82 [2] = conditions: Pompe disease patients under treatment

Molecule	expression of CD82 (CD82 [1])	increase of muscle CD82 expression compared to baseline levels (CD82 [2])
C[C@]12COC(=O)C[C@@H]1CC[C@@H]1[C@@H]2CC[C@@]2(C)[C@H]1CC[C@]2(C)O [oxandrolone]	increase expression of CD82	–
CC(=O)C(=O)[O-].[Na+] [sodium pyruvate]	increase expression of CD82	–
recombinant human lysosomal acid alpha glucosidase: recombinant enzyme used to treat Pompe disease patients	–	25-50%
